Source: patent publication US20240158446A1, “CYCLIC COMPOUND HAVING SELECTIVE INHIBITORY ACTION ON KRAS OVER HRAS AND NRAS” (CHUGAI SEIYAKU KABUSHIKI KAISHA, priority 2021, published 2024)

Key:
[1] = molecular target: GDP-bound NRAS wild-type protein (Homo sapiens, UniProt P01111); experiment: Binding to NRAS by surface plasmon resonance (SPR), Single Cycle Kinetics; conditions: SPR KD ratio NRAS/KRAS, class symbols
[2] = molecular target: GDP-bound HRAS wild-type protein (Homo sapiens, UniProt P01112); experiment: Binding to HRAS by surface plasmon resonance (SPR), Single Cycle Kinetics; conditions: SPR KD ratio HRAS/KRAS, class symbols
GDP-bound HRAS wild-type protein, sequence (P01112 whole entry): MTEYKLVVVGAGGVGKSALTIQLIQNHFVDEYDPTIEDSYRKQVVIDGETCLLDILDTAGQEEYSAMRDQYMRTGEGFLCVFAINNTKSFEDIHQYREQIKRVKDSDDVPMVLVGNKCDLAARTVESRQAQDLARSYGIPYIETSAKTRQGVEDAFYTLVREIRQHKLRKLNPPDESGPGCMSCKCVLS

GDP-bound NRAS wild-type protein, sequence (P01111 whole entry): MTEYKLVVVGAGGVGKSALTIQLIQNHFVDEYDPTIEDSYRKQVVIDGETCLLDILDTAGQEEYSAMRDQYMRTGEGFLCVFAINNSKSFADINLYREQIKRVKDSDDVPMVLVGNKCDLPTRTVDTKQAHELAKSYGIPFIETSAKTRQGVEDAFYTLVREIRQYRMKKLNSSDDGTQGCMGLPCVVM

SMILES	NRAS/KRAS (ratio of KD value with respect to GDP-bound NRAS wild-type protein to KD value with respect to KRAS) [1]	HRAS/KRAS (ratio of KD value with respect to GDP-bound HRAS wild-type protein to KD value with respect to KRAS) [2]
CCCC[C@H]1C(=O)N[C@@H]([C@@H](C)CC)C(=O)N(C)CC(=O)N(C)[C@H]2C/C=C\CCN(C2=O)[C@@H](Cc2ccc(C(F)(F)F)cc2)C(=O)N(C)CC(=O)N[C@@H](CCc2ccc(C(F)(F)F)c(Cl)c2)C(=O)N2C[C@H](OCC)C[C@H]2C(=O)NC2(CCC2)C(=O)N(C)[C@@H](C2CCCC2)C(=O)N(C)[C@H](C(=O)N(C)CC)CC(=O)N1C [PP2841]	A (a compound having 10 or more and less than 20 is denoted as A)	A (a compound having 10 or more and less than 20 is denoted as A)
CCO[C@@H]1C[C@H]2C(=O)NC3(CCC3)C(=O)N(C)[C@@H](C3CCCC3)C(=O)N(C)[C@H](C(=O)N(C)CC)CC(=O)N(C)[C@@H](CC(C)C)C(=O)N[C@@H]([C@@H](C)CC)C(=O)N(C)CC(=O)N(C)[C@H]3C/C=C\CCN(C3=O)[C@@H](Cc3ccc(C(F)(F)F)cc3)C(=O)N(C)CC(=O)N[C@@H](CCc3ccc(Cl)c(Cl)c3)C(=O)N2C1 [PP2845]	AA (a compound having 20 or more is denoted as AA)	A (a compound having 10 or more and less than 20 is denoted as A)
CCO[C@@H]1C[C@H]2C(=O)NC3(CCC3)C(=O)N(C)[C@@H](C3CCCC3)C(=O)N(C)[C@H](C(=O)N(C)CC)CC(=O)N(C)[C@@H](CC(C)C)C(=O)N[C@@H]([C@@H](C)CC)C(=O)N(C)CC(=O)N(C)[C@H]3C/C=C\CCN(C3=O)[C@@H](Cc3ccc(C(F)(F)F)cc3)C(=O)N(C)CC(=O)N[C@@H](CCc3ccc(C(F)(F)F)c(Cl)c3)C(=O)N2C1 [PP2847]	A (a compound having 10 or more and less than 20 is denoted as A)	A (a compound having 10 or more and less than 20 is denoted as A)
CCC[C@H]1C(=O)N[C@@H]([C@@H](C)CC)C(=O)N(C)CC(=O)N(C)[C@H]2C/C=C\CCN(C2=O)[C@@H](Cc2ccc(C(F)(F)F)cc2)C(=O)N(C)CC(=O)N[C@@H](CCc2ccc(C(F)(F)F)c(C3CC3)c2)C(=O)N2C[C@H](OCC)C[C@H]2C(=O)NC2(CC(C)(C)C2)C(=O)N(C)[C@@H](C2CCCC2)C(=O)N(C)[C@H](C(=O)N(C)C)CC(=O)N1C [PP2852]	B (a compound having 3 or more and less than 10 is denoted as B)	B (a compound having 3 or more and less than 10 is denoted as B)
CCC[C@H]1C(=O)N[C@@H]([C@@H](C)CC)C(=O)N(C)CC(=O)N(C)[C@H]2C/C=C\CCN(C2=O)[C@@H](Cc2ccc(C(F)(F)F)cc2)C(=O)N(C)CC(=O)N[C@@H](CCc2ccc(C3CC3)c(OC)c2)C(=O)N2C[C@H](OCC)C[C@H]2C(=O)NC2(CC(C)(C)C2)C(=O)N(C)[C@@H](C2CCCC2)C(=O)N(C)[C@H](C(=O)N(C)C)CC(=O)N1C [PP2853]	A (a compound having 10 or more and less than 20 is denoted as A)	A (a compound having 10 or more and less than 20 is denoted as A)
CCC[C@H]1C(=O)N[C@@H]([C@@H](C)CC)C(=O)N(C)CC(=O)N(C)[C@H]2C/C=C\CCN(C2=O)[C@@H](Cc2ccc(C(F)(F)F)cc2)C(=O)N(C)CC(=O)N[C@@H](CCc2ccc(C3CC3)c(C)c2)C(=O)N2C[C@H](OCC)C[C@H]2C(=O)NC2(CC(C)(C)C2)C(=O)N(C)[C@@H](C2CCCC2)C(=O)N(C)[C@H](C(=O)N(C)C)CC(=O)N1C [PP2855]	A (a compound having 10 or more and less than 20 is denoted as A)	A (a compound having 10 or more and less than 20 is denoted as A)
CCC[C@H]1C(=O)N[C@@H]([C@@H](C)CC)C(=O)N(C)CC(=O)N(C)[C@H]2C/C=C\CCN(C2=O)[C@@H](Cc2ccc(C(F)(F)F)cc2)C(=O)N(C)CC(=O)N[C@@H](CCc2ccc(CC)c(F)c2)C(=O)N2C[C@H](OCC)C[C@H]2C(=O)NC2(CC(C)(C)C2)C(=O)N(C)[C@@H](C2CCCC2)C(=O)N(C)[C@H](C(=O)N(C)C)CC(=O)N1C [PP2856]	A (a compound having 10 or more and less than 20 is denoted as A)	A (a compound having 10 or more and less than 20 is denoted as A)
CCC[C@H]1C(=O)N[C@@H]([C@@H](C)CC)C(=O)N(C)CC(=O)N(C)[C@H]2C/C=C\CCN(C2=O)[C@@H](Cc2ccc(C(F)(F)F)cc2)C(=O)N(C)CC(=O)N[C@@H](CCc2cc(C)c(C(F)F)c(C)c2)C(=O)N2C[C@H](OCC)C[C@H]2C(=O)NC2(CC(C)(C)C2)C(=O)N(C)[C@@H](C2CCCC2)C(=O)N(C)[C@H](C(=O)N(C)C)CC(=O)N1C [PP2857]	A (a compound having 10 or more and less than 20 is denoted as A)	A (a compound having 10 or more and less than 20 is denoted as A)
CCC[C@H]1C(=O)N[C@@H]([C@@H](C)CC)C(=O)N(C)CC(=O)N(C)[C@H]2C/C=C\CCN(C2=O)[C@@H](Cc2ccc(C(F)(F)F)cc2)C(=O)N(C)CC(=O)N[C@@H](CCc2ccc(C3CC3)c(Cl)c2)C(=O)N2C[C@H](OCC)C[C@H]2C(=O)NC2(CC(C)(C)C2)C(=O)N(C)[C@@H](C2CCCC2)C(=O)N(C)[C@H](C(=O)N(C)C)CC(=O)N1C [PP2858]	A (a compound having 10 or more and less than 20 is denoted as A)	B (a compound having 3 or more and less than 10 is denoted as B)
CCC[C@H]1C(=O)N[C@@H]([C@@H](C)CC)C(=O)N(C)CC(=O)N(C)[C@H]2C/C=C\CCN(C2=O)[C@@H](Cc2ccc(C(F)(F)F)cc2)C(=O)N(C)CC(=O)N[C@@H](CCc2cc(Cl)c(C(F)(F)F)c(Cl)c2)C(=O)N2C[C@H](OCC)C[C@H]2C(=O)NC2(CC(C)(C)C2)C(=O)N(C)[C@@H](C2CCCC2)C(=O)N(C)[C@H](C(=O)N(C)C)CC(=O)N1C [PP2859]	A (a compound having 10 or more and less than 20 is denoted as A)	A (a compound having 10 or more and less than 20 is denoted as A)
CCC[C@H]1C(=O)N[C@@H]([C@@H](C)CC)C(=O)N(C)CC(=O)N(C)[C@H]2C/C=C\CCN(C2=O)[C@@H](Cc2ccc(C(F)(F)F)cc2)C(=O)N(C)CC(=O)N[C@@H](CCc2cc(C)c(C(F)F)c(F)c2)C(=O)N2C[C@H](OCC)C[C@H]2C(=O)NC2(CC(C)(C)C2)C(=O)N(C)[C@@H](C2CCCC2)C(=O)N(C)[C@H](C(=O)N(C)C)CC(=O)N1C [PP2860]	A (a compound having 10 or more and less than 20 is denoted as A)	A (a compound having 10 or more and less than 20 is denoted as A)
CCC[C@H]1C(=O)N[C@@H]([C@@H](C)CC)C(=O)N(C)CC(=O)N(C)[C@H]2C/C=C\CCN(C2=O)[C@@H](Cc2ccc(C(F)(F)F)cc2)C(=O)N(C)CC(=O)N[C@@H](CCc2ccc(C(F)(F)F)c(CC)c2)C(=O)N2C[C@H](OCC)C[C@H]2C(=O)NC2(CC(C)(C)C2)C(=O)N(C)[C@@H](C2CCCC2)C(=O)N(C)[C@H](C(=O)N(C)C)CC(=O)N1C [PP2861]	A (a compound having 10 or more and less than 20 is denoted as A)	B (a compound having 3 or more and less than 10 is denoted as B)
CCC[C@H]1C(=O)N[C@@H]([C@@H](C)CC)C(=O)N(C)CC(=O)N(C)[C@H]2C/C=C\CCN(C2=O)[C@@H](Cc2ccc(C(F)(F)F)cc2)C(=O)N(C)CC(=O)N[C@@H](CCc2cc(F)c(CC)c(OC)c2)C(=O)N2C[C@H](OCC)C[C@H]2C(=O)NC2(CC(C)(C)C2)C(=O)N(C)[C@@H](C2CCCC2)C(=O)N(C)[C@H](C(=O)N(C)C)CC(=O)N1C [PP2862]	A (a compound having 10 or more and less than 20 is denoted as A)	B (a compound having 3 or more and less than 10 is denoted as B)
CCC[C@H]1C(=O)N[C@@H]([C@@H](C)CC)C(=O)N(C)CC(=O)N(C)[C@H]2C/C=C\CCN(C2=O)[C@@H](Cc2ccc(C(F)(F)F)cc2)C(=O)N(C)CC(=O)N[C@@H](CCc2cc(C)c(C3CC3)c(C)c2)C(=O)N2C[C@H](OCC)C[C@H]2C(=O)NC2(CC(C)(C)C2)C(=O)N(C)[C@@H](C2CCCC2)C(=O)N(C)[C@H](C(=O)N(C)C)CC(=O)N1C [PP2863]	A (a compound having 10 or more and less than 20 is denoted as A)	A (a compound having 10 or more and less than 20 is denoted as A)
CCC[C@H]1C(=O)N[C@@H]([C@@H](C)CC)C(=O)N(C)CC(=O)N(C)[C@H]2C/C=C\CCN(C2=O)[C@@H](Cc2ccc(C(F)(F)F)cc2)C(=O)N(C)CC(=O)N[C@@H](CCc2cc(F)c(Cl)c(OC)c2)C(=O)N2C[C@H](OCC)C[C@H]2C(=O)NC2(CC(C)(C)C2)C(=O)N(C)[C@@H](C2CCCC2)C(=O)N(C)[C@H](C(=O)N(C)C)CC(=O)N1C [PP2864]	A (a compound having 10 or more and less than 20 is denoted as A)	A (a compound having 10 or more and less than 20 is denoted as A)
